According to patent publication US6087355A, “Cephalosporin antibiotics” (Microcide Pharmaceuticals, Inc., priority 1996, dated 2000):
Where a name gives a salt, the structure may show the parent alone.

Experiments:
E. coli ATCC 25992 = experiment: In vitro MIC, agar dilution; type: cell-based; conditions: Escherichia coli, ATCC25992, read-out: minimum inhibitory concentration (MIC)
In short: (§1)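 Agar dilution on Mueller-Hinton plates: spots of roughly 10^4 cfu of log-phase bacteria were placed on agar containing serial two-fold compound dilutions, from a 128 μg/mL top working level to ≤0.25 μg/mL, each in duplicate. After 16-20 hours at 35-36° C, the lowest growth-inhibiting concentration was taken as the MIC.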

E. faecalis ATCC 29212 = experiment: In vitro MIC, agar dilution; type: cell-based; conditions: Enterococcus faecalis, ATCC29212, read-out: minimum inhibitory concentration (MIC)
In short: as §1

E. faecalis VanB(Van^R) = experiment: In vitro MIC, agar dilution; type: cell-based; conditions: Enterococcus faecalis, read-out: minimum inhibitory concentration (MIC)
In short: as §1

E. faecium A491(Amp^R) = experiment: In vitro MIC, agar dilution; type: cell-based; conditions: Enterococcus faecium, read-out: minimum inhibitory concentration (MIC)
In short: as §1

E. faecium ATCC 35667 = experiment: In vitro MIC, agar dilution; type: cell-based; conditions: Enterococcus faecium, ATCC35667, read-out: minimum inhibitory concentration (MIC)
In short: as §1

E. faecium VanA(Van^R) = experiment: In vitro MIC, agar dilution; type: cell-based; conditions: Enterococcus faecium, read-out: minimum inhibitory concentration (MIC)
In short: as §1

P. aeruginosa ATCC 27853 = experiment: In vitro MIC, agar dilution; type: cell-based; conditions: Pseudomonas aeruginosa, ATCC27853, read-out: minimum inhibitory concentration (MIC)
In short: as §1

[1] = test system: S. aureus 76(Meth^R)(lac^+); experiment: In vitro MIC, agar dilution; type: cell-based; conditions: Staphylococcus aureus, read-out: minimum inhibitory concentration (MIC)
In short: as §1

[2] = test system: S. aureus ATCC 13709(Meth^S); experiment: In vitro MIC, agar dilution; type: cell-based; conditions: Staphylococcus aureus, ATCC13709, S. aureus ATCC 13709(Meth^S); read-out: minimum inhibitory concentration (MIC)
In short: as §1

S. aureus ATCC 29213 = experiment: In vitro MIC, agar dilution; type: cell-based; conditions: Staphylococcus aureus, ATCC29213, read-out: minimum inhibitory concentration (MIC)
In short: as §1

[3] = test system: S. aureus ATCC 33593(Meth^R); experiment: In vitro MIC, agar dilution; type: cell-based; conditions: Staphylococcus aureus, ATCC33593, read-out: minimum inhibitory concentration (MIC)
In short: as §1

[4] = test system: S. aureus PC1(Meth^S)(lac^+); experiment: In vitro MIC, agar dilution; type: cell-based; conditions: Staphylococcus aureus, read-out: minimum inhibitory concentration (MIC)
In short: as §1

[5] = test system: S. aureus Spain #356(Meth^R); experiment: In vitro MIC, agar dilution; type: cell-based; conditions: Staphylococcus aureus, read-out: minimum inhibitory concentration (MIC)
In short: as §1

[6] = test system: S. haemolyticus 05(Meth^R); experiment: In vitro MIC, agar dilution; type: cell-based; conditions: Staphylococcus haemolyticus, read-out: minimum inhibitory concentration (MIC)
In short: as §1

[7] = test system: S. aureus Col(Meth^R)(lac^-); experiment: In vitro MIC, agar dilution; type: cell-based; conditions: Staphylococcus aureus, read-out: minimum inhibitory concentration (MIC)
In short: (§2)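 Two-fold dilutions (128 to ≤0.25 μg/mL, in duplicate) were poured into Mueller-Hinton agar. Log-phase broth cultures were spot-inoculated at about 10^4 cfu per spot and incubated 35-36°C for 16-20 hours; the MIC was the lowest concentration inhibiting growth. Col is a high-level PBP2a producer; Col 8A is its isogenic PBP2a-lacking partner.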

[8] = test system: S. aureus Col8A(Meth^S)(lac^-); experiment: In vitro MIC, agar dilution; type: cell-based; conditions: Staphylococcus aureus; S. aureus Col8A(Meth^S)(lac^-); read-out: minimum inhibitory concentration (MIC)
In short: as §2

[9] = test system: S. aureus strain ATCC 13709 (methicillin-susceptible); experiment: Murine model for lethal bacteremic peritonitis; type: in vivo, female Swiss-Webster mice; conditions: Staphylococcus aureus, ATCC13709, SC, 72 h; for responders at 0.3125 mg/kg / responders at 0.625 mg/kg / responders at 2.5 mg/kg / responders at 5 mg/kg: read-out: Survivors; for responders at 1.25 mg/kg: read-out: Survivors (converted); for ED50: two equal doses, IP challenge, read-out: ED50
In short: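 Female Swiss-Webster mice were challenged IP with an LD100 inoculum in 7% hog gastric mucin, then given test drug subcutaneously in twofold increments (0.01–512 mg/kg) as two equal doses at challenge and 2 h later, 10 mice per group. Survival was scored at 72 h; PD50 (total mg/kg) was derived by probit.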

Compound	MIC (E. coli ATCC 25992) [µg/mL]	MIC (E. faecalis ATCC 29212) [µg/mL]	MIC (E. faecalis VanB(Van^R)) [µg/mL]	MIC (E. faecium A491(Amp^R)) [µg/mL]	MIC (E. faecium ATCC 35667) [µg/mL]	MIC (E. faecium VanA(Van^R)) [µg/mL]	MIC (P. aeruginosa ATCC 27853) [µg/mL]	MIC [1] [µg/mL]	MIC [2] [µg/mL]	MIC (S. aureus ATCC 29213) [µg/mL]	MIC [3] [µg/mL]	MIC [4] [µg/mL]	MIC [5] [µg/mL]	MIC [6] [µg/mL]	MIC [7] [µg/mL]	MIC [8] [µg/mL]	responders at 0.3125 mg/kg [9] [%]	responders at 0.625 mg/kg [9] [%]	responders at 1.25 mg/kg [9] [%]	responders at 2.5 mg/kg [9] [%]	further results
NCC(O)CSCc1cnccc1SC1=C(C(=O)O)N2C(=O)[C@@H](NC(=O)/C(=N\O)c3nc(N)sc3Cl)[C@H]2SC1 (stereo partly drawn) [Cmpd 32, (7R)-7-[(Z)-2-(2-amino-5-chlorothiazol-4-yl)-2-(hydroxyimino)acetamido]-3-[3-(3-amino-2-hydroxyprop-1-ylthiomethyl)pyrid-4-ylthio]-3-cephem-4-carboxylate, trifluoroacetic acid salt]	8	≤ 0.06	0.13	8	0.5	1	> 32	2	0.13	0.25	2	0.5	2	4	1	0.25	0	10	50	50	responders at 5 mg/kg [9]: 80%; ED50 [9]: 2 mg/kg
Nc1nc(/C(=N/O)C(=O)N[C@@H]2C(=O)N3C(C(=O)O)=C(Sc4ccncc4SCCNC=O)CS[C@H]23)c(Cl)s1 [Cmpd 64, (7R)-7-[(Z)-2-(2-amino-5-chlorothiazol-4-yl)-2-(hydroxyimino)acetamido]-3-(3-(N-formylaminoethylthio)pyrid-4-ylthio)-3-cephem-4-carboxylate, trifluoroacetic acid salt]	8	0.25	0.5	16	1	2	> 32	4	0.25	0.25	2	0.5	4	4	2	0.25	10	10	40	40	responders at 5 mg/kg [9]: 80%; ED50 [9]: 2.27 mg/kg
Nc1nc(/C(=N/O)C(=O)N[C@@H]2C(=O)N3C(C(=O)O)=C(Sc4ccncc4CSC4CCNC4)CS[C@H]23)cs1 (stereo partly drawn) [Cmpd 17, (7R)-7-[(Z)-2-(aminothiazol-4-yl)-2-(hydroxyimino)acetamido]-3-[3-(3-pyrrolidinothiomethyl)pyrid-4-ylthio]-3-cephem-4-carboxylate, trifluoroacetic acid salt]	2	0.13	0.5	> 32	1	0.25	> 32	4	0.25	0.25	2	0.25	4	8	2	0.5	20	20	50	30	responders at 5 mg/kg [9]: 60%; ED50 [9]: 3.59 mg/kg
NCCSc1cnccc1SC1=C(C(=O)O)N2C(=O)[C@@H](NC(=O)/C(=N\O)c3nc(N)sc3Cl)[C@H]2SC1 [Cmpd 30, (7R)-7-[(Z)-2-(2-amino-5-chlorothiazol-4-yl)-2-(hydroxyimino)acetamido]-3-(3-aminoethylthiopyrid-4-ylthio)-3-cephem-4-carboxylate, trifluoroacetic acid salt]	8	≤ 0.06	≤ 0.06	8	0.5	1	> 32	2	≤ 0.25	0.25	1	≤ 0.25	1	1	0.5	0.13	0	20	40	100	responders at 5 mg/kg [9]: 100%; ED50 [9]: 1.14 mg/kg
